The source of these data is patent US10092529B2, “Necrosis inhibitors” (National Institute of Biological Sciences, Beijing, priority 2014, dated 2018).

What is called EC50 is the concentration at which the effect is half-maximal.

For this assay, the system named is HT-29 cells. As to the kind of experiment: Necrosis assay: TNF-α/Smac mimetic/z-VAD induced necrosis, cell viability by CellTiter-Glo. In kind it is cell-based. The settings on record: inhibition of necrosis, ATP levels, read-out: EC50 (necrosis activity). How it is done: HT-29 cells were cultured in McCoy's 5A culture medium (Invitrogen). On day one, HT-29 cells were plated in 96-well assay plates at density of 2,500-3,500 cells per well. On day two, necrosis were induced by adding 20 ng/ml TNF-α (T), 100 nM Smac mimetic (S), and […] z-VAD (Z). At the same time, […] compound from a chemical library of ˜200,000 compounds was delivered into each well. After 24 hrs treatment, cell viability was determined by measuring ATP level using the CellTiter-Glo Luminescent Cell Viability Assay kit. A CellTiter-Glo Assay (Promega) was performed according to the manufacturer's instructions Luminescence was recorded with a PerkinElmer EnSpire Multimode Plate Reader. Survived cells were normalized to those cells treated with DMSO. Nec-1 was used as a positive control for screening necrosis inhibitors. Data are represented as mean±standard deviation of duplicates.
Dose-dependent inhibition of necrosis by compound #9 and the derivative compounds in HT-29 cells were determined by measuring ATP levels as described above.

The mark [1] stands for this setting: Homo sapiens, range given in uM.

The structures appear in SMILES notation. Read-outs that look alike come from different tables or passages of the source.

Take `CCC(C)(C)C(=O)N1CC1c1ccccc1` (stereo not shown) [Compound 1, 2,2-dimethyl-1-(2-phenylaziridin-1-yl)butan-1-one]: the EC50 under setting [1] fell in the range of 1 to 100 µM.
Consider `CCC(C)(C)C(=O)N1CC[C@H]1c1ccccc1` [Compound 3, (S)-2,2-dimethyl-1-(2-phenylazetidin-1-yl)butan-1-one], for which, where the note is “range given in nM”, the EC50 lay within 0.001 to 1 µM.
As for `CCC(C)(C)C(=O)N1CCCC1c1ccccc1` (stereo not shown) [Compound 4, 2,2-dimethyl-1-(2-phenylpyrrolidin-1-yl)butan-1-one], the half-maximal effective concentration (EC50) (range given in nM) was 0.001 to 1 µM.
With `CCC(C)(C)C(=O)N1CCCC1C1CCCCC1` (stereo not shown) [Compound 5, 1-(2-cyclohexylpyrrolidin-1-yl)-2,2-dimethylbutan-1-one], for the setting “range given in nM”, the EC50 lay within 0.001 to 1 µM.
On to `CCC(C)(C)C(=O)N1CCOC1c1ccccc1` (stereo not shown) [Compound 6, 2,2-dimethyl-1-(2-phenyloxazolidin-3-yl)butan-1-one], for which the EC50 under setting [1] was 1 to 100 µM.
As to `CCC(C)(C)C(=O)N1COC[C@@H]1c1ccccc1` [Compound 7, (S)-2,2-dimethyl-1-(4-phenyloxazolidin-3-yl)butan-1-one], under setting [1], the EC50 lay in the range of 1 to 100 µM.
Take `CCC(C)(C)C(=O)N1COC[C@H]1c1ccccc1` [Compound 8, (R)-2,2-dimethyl-1-(4-phenyloxazolidin-3-yl)butan-1-one]: the EC50 (range given in nM) is 0.001 to 1 µM.
On the same count and under the same terms, the same measure for `CCC(C)(C)C(=O)N1CCCC1c1cccc(F)c1` (stereo not shown) [Compound 9, 1-(2-(3-fluorophenyl)pyrrolidin-1-yl)-2,2-dimethylbutan-1-one]: 0.001 to 1 µM.
For `CCC(C)(C)C(=O)N1CCCCC1c1ccccc1` (stereo not shown) [Compound 11, 2,2-dimethyl-1-(2-phenylpiperidin-1-yl)butan-1-one], the half-maximal effective concentration (EC50) under setting [1] lay in the range of 1 to 100 µM.
For `CCC(C)(C)C(=O)N1CCOCC1c1ccccc1` (stereo not shown) [Compound 12, 2,2-dimethyl-1-(3-phenylmorpholino)butan-1-one], under setting [1], the half-maximal effective concentration (EC50) lay in the range of 1 to 100 µM.
For the compound `CCC(C)(C)C(=O)N1CC(F)(F)C1c1ccccc1` (stereo not shown) [Compound 14, 1-(3,3-difluoro-2-phenylazetidin-1-yl)-2,2-dimethylbutan-1-one], for the setting “range given in nM”, the EC50 fell in the range of 0.001 to 1 µM.
`CCC(C)(C)C(=O)N1CC(O)C1c1ccccc1` (stereo not shown) [Compound 16, 1-(3-hydroxy-2-phenylazetidin-1-yl)-2,2-dimethylbutan-1-one]: under setting [1], the 50% effective concentration (EC50) is 1 to 10 µM.
For `CCC(C)(C)C(=O)N1CCNCC1c1ccccc1` (stereo not shown) [Compound 17, 2,2-dimethyl-1-(2-phenylpiperazin-1-yl)butan-1-one], the EC50 under setting [1] lay within 1 to 100 µM.
As for `CCC(C)(C)C(=O)N1CCN(C(C)=O)CC1c1ccccc1` (stereo not shown) [Compound 18, 1-(4-acetyl-2-phenylpiperazin-1-yl)-2,2-dimethylbutan-1-one], the EC50 under setting [1] is 1 to 100 µM.
On to `CCC(C)(C)C(=O)N1CCN(C(=O)OC(C)(C)C)CC1c1ccccc1` (stereo not shown) [Compound 19, tert-butyl 4-(2,2-dimethylbutanoyl)-3-phenylpiperazine-1-carboxylate], for which the EC50 under setting [1] lay within 1 to 100 µM.
With `CCC(C)(C)C(=O)N1N=CCC1c1ccccc1` (stereo not shown) [Compound 20, 2,2-dimethyl-1-(5-phenyl-4,5-dihydro-1H-pyrazol-1-yl)butan-1-one], for the setting “range given in nM”, the EC50 fell in the range of 0.001 to 1 µM.
Take `CCC(C)(C)C(=O)N1NCCC1c1ccccc1` (stereo not shown) [Compound 21, 2,2-dimethyl-1-(5-phenylpyrazolidin-1-yl)butan-1-one]: the EC50 (range given in nM) lay within 0.001 to 1 µM.
For the compound `CCC(C)(C)C(=O)N1C(c2ccccc2)CCN1C` (stereo not shown) [Compound 22, 2,2-dimethyl-1-(2-methyl-5-phenylpyrazolidin-1-yl)butan-1-one], where the note is “range given in nM”, the concentration giving a half-maximal response (EC50) is 0.001 to 1 µM.
The same measure, in the same setting: in the case of `CCC(C)(C)C(=O)N1C(=O)OC[C@H]1c1ccccc1` [Compound 23, (R)-3-(2,2-dimethylbutanoyl)-4-phenyloxazolidin-2-one] it was 0.001 to 1 µM.
Take `CCC(C)(C)C(=O)N1C(=O)CC1c1cccc(Br)c1` (stereo not shown) [Compound 26, 4-(3-bromophenyl)-1-(2,2-dimethylbutanoyl)azetidin-2-one]: under “range given in nM”, the half-maximal effective concentration (EC50) was in the range of 0.001 to 1 µM.
Still for that read-out and setting: in the case of `C#Cc1cccc(C2CC(=O)N2C(=O)C(C)(C)CC)c1` (stereo not shown) [Compound 27, 1-(2,2-dimethylbutanoyl)-4-(3-ethynylphenyl)azetidin-2-one] it was 0.001 to 1 µM.
In the case of `CCC(C)(C)C(=O)N1C(=O)CC1c1cccc([N+](=O)[O-])c1` (stereo not shown) [Compound 28, 1-(2,2-dimethylbutanoyl)-4-(3-nitrophenyl)azetidin-2-one], the EC50 under setting [1] fell in the range of 1 to 10 µM.
As for `CCC(C)(C)C(=O)N1C(=O)CCC1c1ccccc1` (stereo not shown) [Compound 29, 1-(2,2-dimethylbutanoyl)-5-phenylpyrrolidin-2-one], the EC50 under setting [1] lay in the range of 1 to 100 µM.
Still for that read-out and setting: the same measure for `C#CCN1C[C@@H](c2ccccc2)N(C(=O)C(C)(C)CC)C1=O` [Compound 30, (R)-3-(2,2-dimethylbutanoyl)-4-phenyl-1-(prop-2-yn-1-yl)imidazolidin-2-one]: 1 to 10 µM.
For `CCC(C)(C)C(=O)N1C(=O)C(F)(F)C1c1ccccc1` (stereo not shown) [Compound 32, 1-(2,2-dimethylbutanoyl)-3,3-difluoro-4-phenylazetidin-2-one], where the note is “range given in nM”, the concentration giving a half-maximal response (EC50) lay within 0.001 to 1 µM.
Consider `CCC(C)(C)C(=O)N1C(=O)CCN1c1ccccc1` [Compound 33, 2-(2,2-dimethylbutanoyl)-1-phenylpyrazolidin-3-one], for which the EC50 under setting [1] was 1 to 100 µM.
With `CCC(C)(C)C(=O)N1NC(=O)CC1c1ccccc1` (stereo not shown) [Compound 34, 1-(2,2-dimethylbutanoyl)-5-phenylpyrazolidin-3-one], the EC50 under setting [1] was in the range of 1 to 100 µM.
Regarding `O=C(N1CCCC1c1cccc(F)c1)C1(C(F)(F)F)CCCC1` (stereo not shown) [Compound 35, (2-(3-fluorophenyl)pyrrolidin-1-yl)(1-(trifluoromethyl)cyclopentyl)methanone], where the note is “range given in nM”, the EC50 was 0.001 to 1 µM.
For `O=C(N1CCCC1c1cccc(F)c1)C1(C(F)(F)F)CCC1` (stereo not shown) [Compound 36, (2-(3-fluorophenyl)pyrrolidin-1-yl)(1-(trifluoromethyl)cyclobutyl)methanone], the EC50 (range given in nM) lay within 0.001 to 1 µM.
As for `O=C(N1CCCC1c1cccc(F)c1)C12CC3CC(CC(C3)C1)C2` (stereo not shown) [Compound 37, adamantan-1-yl(2-(3-fluorophenyl)pyrrolidin-1-yl)methanone], the EC50 under setting [1] is 1 to 100 µM.
As to `CC(=O)N1C(=O)OC[C@H]1c1ccccc1` [Compound 39, (R)-3-acetyl-4-phenyloxazolidin-2-one], the EC50 under setting [1] fell in the range of 1 to 10 µM.
On to `O=C(C=CCl)N1C(=O)C[C@H]1c1ccccc1` [Compound 40, (S)-1-(3-chloroacryloyl)-4-phenylazetidin-2-one], for which the EC50 under setting [1] fell in the range of 1 to 100 µM.
`CC(C)(C)[S+]([O-])N1C(=O)C[C@H]1c1ccccc1` (stereo partly drawn) [Compound 41, (4S)-1-(tert-butylsulfinyl)-4-phenylazetidin-2-one]: the EC50 under setting [1] was in the range of 1 to 100 µM.
On the same count and under the same terms, the same measure for `CC(C)S(=O)(=O)N1C(=O)C[C@H]1c1ccccc1` [Compound 42, (S)-1-(isopropylsulfonyl)-4-phenylazetidin-2-one]: 1 to 100 µM; for `CCS(=O)(=O)N1C(=O)C[C@H]1c1ccccc1` [Compound 43, (S)-1-(ethylsulfonyl)-4-phenylazetidin-2-one]: 1 to 100 µM; for `C#CC(C)(C)C(=O)N1C(=O)CC1c1cccc(N=[N+]=[N-])c1` (stereo not shown) [Compound 44, 4-(3-azidophenyl)-1-(2,2-dimethylbut-3-ynoyl)azetidin-2-one]: 1 to 10 µM.
The same measure, in the same setting: in the case of `CC(C)(C)S(=O)(=O)N1C(=O)C[C@H]1c1ccccc1` [Compound 45, (S)-1-(tert-butylsulfonyl)-4-phenylazetidin-2-one] it was 1 to 100 µM.
